From US20130137724A1, “PHARMACEUTICAL COMPOSITIONS COMPRISING 7-(1H-IMIDAZOL-4-YLMETHYL)-5,6,7,8-TETRAHYDRO-QUINOLINE FOR RETINAL NEUROPROTECTION” (ALLERGAN, INC., priority 2011, published 2013) come the findings set out here.

A word on the EC50: it is the concentration needed to bring the measured effect to its halfway point. A higher EC50 goes with lower potency in that assay.

One series deals with T1, alpha 2A receptor (Homo sapiens, UniProt P08913).
T1 sequence (P08913 1-465): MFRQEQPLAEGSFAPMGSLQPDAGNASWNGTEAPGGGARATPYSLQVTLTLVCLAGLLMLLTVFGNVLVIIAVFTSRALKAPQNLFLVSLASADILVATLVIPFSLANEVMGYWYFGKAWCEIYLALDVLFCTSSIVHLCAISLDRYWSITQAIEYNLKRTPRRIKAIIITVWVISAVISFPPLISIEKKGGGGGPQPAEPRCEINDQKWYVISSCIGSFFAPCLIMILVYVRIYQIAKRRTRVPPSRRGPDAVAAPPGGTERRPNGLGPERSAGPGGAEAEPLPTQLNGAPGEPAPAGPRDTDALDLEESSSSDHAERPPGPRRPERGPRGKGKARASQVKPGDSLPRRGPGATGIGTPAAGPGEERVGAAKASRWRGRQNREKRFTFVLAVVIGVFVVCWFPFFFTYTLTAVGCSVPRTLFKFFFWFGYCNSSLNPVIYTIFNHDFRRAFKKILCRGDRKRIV
As to the kind of experiment: biochemical. The procedure: The extent of binding is a measure of receptor activation. […] Membranes were thawed and resuspended using a Polytron disrupter in 4° C. membrane buffer and quantified via Bradford assay. […] The above mixture was then aliquoted, 50 μL/well, in a 96 well plate, combined with an equal volume of test compound dissolved in assay buffer [50 mM Tris-HCl, 100 mM NaCl, 5 mM MgCl2, 1 mM EDTA, and 1 mM DTT, pH 7.4 and 4° C.], and allowed to incubate for 5 minutes. […] Assays were terminated by vacuum filtration over GF/B filters blocked with 0.5% BSA.

In series [1] the test system is visual acuity in normal DB rabbits. As to the kind of experiment: Visual enhancement model, spatial sweep visual evoked potential (sVEP) acuity. The class given is in vivo, rabbit. The conditions noted are these: intravenous route, 10-30 minutes post-dose. The procedure: Spatial sweep visual evoked potential (sVEP) acuity. Spatial sVEP acuity was assessed with PowerDiva software version 1.8. Recordings were made bilaterally in conscious animals.

Series [2] relates to blue light induced retinal damage. As to the kind of experiment: Blue light model of retinal degeneration, retinal thickness by OCT. The class given is in vivo, rat. Particulars: subcutaneous pump 0.3 and 1 mg/kg/day from two days before exposure, OCT 7 days post blue light, Sprague-Dawley rats. As to the method: Twenty 4-month old male Sprague-Dawley rats (body weight 470-550 g) were used in this study. The animals were exposed to room light on a 12 hour light/12 hour dark cycle before the experiment. All animals were dark adapted overnight (16-20 hours) before blue light. Under the intensity of 6100-6500 lux, rats were exposed to blue light for 4 hours. After the blue light, rats were placed in the dark for another 3 days before returning to normal 12 hour light/12 hour dark. Ocular Coherence Tomography (OCT) measurement was performed at 7 days post blue light exposure.
Histology studies have shown that the reduction in retinal thickness is attributable to loss of photoreceptors.

The nature of series [3]: Drug level in the retina with continuous subcutaneous pump dosing. The conditions noted are these: 0.3 mg/kg/day and 1 mg/kg/day, rats. The class given is in vivo, rat.
Another series concerns the target T2, α2A-adrenergic receptor (Homo sapiens, UniProt P08913).
T2 sequence (P08913 1-465): T1 sequence (P08913 1-465)
Particulars: for Percent of Bmax Decrease: 1 μM compound, 24 hours, HEK 293T cells stably transfected with α2A-adrenergic receptor; for down-regulation of alpha2A receptor / receptor density: binding studies, result in words.

Procedure for α2A-adrenergic receptor: Human embryonic kidney (HEK) 293T cells stably transfected with the α2A-adrenergic receptor were grown to 50-60% confluency on T-175 culture flasks in DMEM (Gibco, cat. #11995), 10% FBS (Gibco, cat. #16140), 0.25 ug/mL puromycin (Sigma, cat. #P-8833), and 1% antibiotic-antimycotic (Gibco, cat. #15240) maintained at 37° C. and 5% CO2. […] The cells were then washed with room temperature Dulbecco's phosphate buffered saline (DPBS; Gibco, cat. #14190).
Cells were harvested with 4° C. Tris-EDTA buffer [50 mM Tris-HCl, 5 mM EDTA; pH 7.4] and centrifuged at 5,000×g for 5 minutes at 4° C. Membrane preparation was conducted by resuspending the cell pellets in 4° C. Tris-EDTA buffer and lysed with a Polytron disrupter two times (setting 7, 5 seconds each). The lysed suspension was then centrifuged at ˜35,000×g for 32 minutes at 4° C. After decanting the supernatant, the pelleted material was further lysed in 4° C. Tris buffer [50 mM Tris-HCl; pH 8.0] using the Polytron disrupter (setting 4, 5 seconds). Membranes were then aliquoted, pelleted at ˜37,000×g for 32 minutes at 4° C., and stored at −80° C. until use.
Membranes were thawed and resuspended using a Polytron disrupter in 4° C. HBSS-HEPES buffer [1 part 1M HEPES: 5 parts 10× Hank's Balanced Salt Solution: 43.8 parts H2O; pH 7.4 with KOH] and quantified via Bradford assay. The quantified protein was further diluted with HBSS-HEPES buffer to achieve a 100 μg/mL concentration. Membrane suspension was plated in a 96-well plate at 200 μLs/well ±10 μM phentolamine HCl (Sigma, cat. #P-7547) and [Methyl-^3H] Rauwolscine (15 nM to 0.05 nM; PerkinElmer, cat. #NET722250UC). The assay plate was slowly shaken and incubated at 25° C. for ninety minutes. Immediately following the above incubation, the assays were terminated by vacuum filtration over GF/B filters. Filters were then washed with 4° C. HBSS-HEPES buffer. The incorporated [Methyl-^3H] Rauwolscine was determined using a Microbeta 1450B liquid scintillation counter after the plates had dried overnight.

The compound `c1cnc2c(c1)CC[C@H](Cc1c[nH]cn1)C2` [(S)-(+)-7-(1H-Imidazol-4-ylmethyl)-5,6,7,8-tetrahydro-quinoline] showed an EC50 on alpha 2A receptor below 1 nM. In addition, the “Relative Efficacy” value on alpha 2A receptor (efficacy relative to the full agonist brimonidine) is recorded as 0.6. In series [1], the “visual acuity (sVEP)” value is reported as “enhances visual acuity”. The “damage caused by blue light (retinal thickness by OCT)” value in series [2] is recorded as “significantly reduced the damage caused by blue light”. The “drug levels in the retina” value in series [3] is 1.3 ng/g. Also, at α2A-adrenergic receptor, the “Percent of Bmax Decrease” value was −25% and the “down-regulation of alpha2A receptor / receptor density” value is reported as “induces very little down-regulation of alpha2A receptor”.
For the compound `Brc1c(N=C2NCCN2)ccc2nccnc12` [Brimonidine, (5-bromo-quinoxalin-6-yl)-imidazolidin-2-ylidene-amine, reference compound], on α2A-adrenergic receptor, the “Percent of Bmax Decrease” value is −45% and the “down-regulation of alpha2A receptor / receptor density” value is recorded as “induced a strong reduction in the alpha 2A receptor density”.
